Assay results taken from patent US20190209650A1, “METHOD TO IMPROVE THE EFFECTIVENESS OF ANTI-CANCER THERAPIES BY EXPOSING CANCER CELLS TO AN INFLAMMATORY STIMULUS PRIOR TO TREATMENT” (priority 2016, published 2019).

Test system: SW620 colorectal cancer cell line
Experiment: Flow cytometry of EpCAM positive cells and cancer stem cell (CD44+CD133-) subpopulation after incubation with cytokines
Format: cell-based, human
Settings: for % Gated, R4 (CD44FITC, CD133 PE) / % Total, R4 (CD44FITC, CD133 PE): population R4 & R14 & R2 & R1; for % Gated, R5 (CD44FITC, CD133 PE) / % Total, R5 (CD44FITC, CD133 PE): population R5 & R14 & R2 & R1; for % Gated, R6 (CD44FITC, CD133 PE) / % Total, R6 (CD44FITC, CD133 PE): population R6 & R14 & R2 & R1; for % Gated, R7 Cancer Stem Cell (CSC) (CD44+CD133-) / % Total, R7 Cancer Stem Cell (CSC) (CD44+CD133-): population R7 & R14 & R2 & R1; for % Gated, R8 (CD44FITC, EpCAMefluor710) / % Total, R8 (CD44FITC, EpCAMefluor710): population R8 & R14 & R2 & R1; for % Gated, R9 EpCAM positive Cells (CD44FITC, EpCAMefluor710) / % Total, R9 EpCAM positive Cells (CD44FITC, EpCAMefluor710): population R9 & R14 & R2 & R1; for % Gated, R10 EpCAM positive Cells (CD44FITC, EpCAMefluor710) / % Total, R10 EpCAM positive Cells (CD44FITC, EpCAMefluor710): population R10 & R14 & R2 & R1; for % Gated, R11 (CD44FITC, EpCAMefluor710) / % Total, R11 (CD44FITC, EpCAMefluor710): population R11 & R14 & R2 & R1
Procedure: This number returned to near baseline 21% at 48 hours. […] This change was transient, occurring within 24 hours and rapidly returning to baseline.
The data from the scatter plots of FIGS. 1A-1H, 2A-2H, and 3A-3H are reproduced below in Tables 1-3.
Based on the above data of potentiating the effectiveness of chemotherapy by exposing cancer cells to specific cytokines such as HGF and or Il-6 within a time limited fashion, the mechanism behind this ability to sensitize cancer cells may not simply be triggering cellular proliferation. Specific cytokine exposures can transiently cause a cancer cell population to differentiate away from a more stem cell enriched, mesenchymal phenotype towards a more differentiated, epithelial cell population more sensitive to the effects of anti-cancer therapies (see Tables 1-3).
In particular, exposure to a control population of SW620 colorectal cancer cell line to HGF at a concentration of 10 ng per ml for 24 hours caused the control putative stem cell population (CD44+/CD133−) to drop from 33% at baseline (see Table 1, R7 region, CD 44 positive/CD133 negative) to 1% (see Table 2, R7, region CD 44 positive/CD133 negative). This drop was transient, as exposure to the same cell line for 48 hours of HGF at 10 ng per ml transitioned the phenotypic distribution back towards a stem cell enriched phenotype with 23% putative stem cells (see Table 3, R7 region, CD 44 positive/CD133 negative).

IL6: Interleukin 6, cytokine
% Gated, R4 (CD44FITC, CD133 PE) (0 hour incubation): 48.6%
% Total, R4 (CD44FITC, CD133 PE) (0 hour incubation): 45.1%
% Gated, R5 (CD44FITC, CD133 PE) (0 hour incubation): 3.48%
% Total, R5 (CD44FITC, CD133 PE) (0 hour incubation): 3.23%
% Gated, R6 (CD44FITC, CD133 PE) (0 hour incubation): 13.9%
% Total, R6 (CD44FITC, CD133 PE) (0 hour incubation): 12.9%
% Gated, R7 Cancer Stem Cell (CSC) (CD44+CD133-) (0 hour incubation): 34.2%
% Total, R7 Cancer Stem Cell (CSC) (CD44+CD133-) (0 hour incubation): 31.7%
% Gated, R8 (CD44FITC, EpCAMefluor710) (0 hour incubation): 5.15%
% Total, R8 (CD44FITC, EpCAMefluor710) (0 hour incubation): 4.78%
% Gated, R9 EpCAM positive Cells (CD44FITC, EpCAMefluor710) (0 hour incubation): 53%
% Total, R9 EpCAM positive Cells (CD44FITC, EpCAMefluor710) (0 hour incubation): 49.2%
% Gated, R10 EpCAM positive Cells (CD44FITC, EpCAMefluor710) (0 hour incubation): 39%
% Total, R10 EpCAM positive Cells (CD44FITC, EpCAMefluor710) (0 hour incubation): 36.1%
% Gated, R11 (CD44FITC, EpCAMefluor710) (0 hour incubation): 2.42%
% Total, R11 (CD44FITC, EpCAMefluor710) (0 hour incubation): 2.24%
% Gated, R4 (CD44FITC, CD133 PE) (24 h incubation): 41.1%
% Total, R4 (CD44FITC, CD133 PE) (24 h incubation): 33.4%
% Gated, R5 (CD44FITC, CD133 PE) (24 h incubation): 7.69%
% Total, R5 (CD44FITC, CD133 PE) (24 h incubation): 6.27%
% Gated, R6 (CD44FITC, CD133 PE) (24 h incubation): 28.8%
% Total, R6 (CD44FITC, CD133 PE) (24 h incubation): 23.4%
% Gated, R7 Cancer Stem Cell (CSC) (CD44+CD133-) (24 h incubation): 22.3%
% Total, R7 Cancer Stem Cell (CSC) (CD44+CD133-) (24 h incubation): 18.1%
% Gated, R8 (CD44FITC, EpCAMefluor710) (24 h incubation): 5.35%
% Total, R8 (CD44FITC, EpCAMefluor710) (24 h incubation): 4.36%
% Gated, R9 EpCAM positive Cells (CD44FITC, EpCAMefluor710) (24 h incubation): 48.4%
% Total, R9 EpCAM positive Cells (CD44FITC, EpCAMefluor710) (24 h incubation): 39.4%
% Gated, R10 EpCAM positive Cells (CD44FITC, EpCAMefluor710) (24 h incubation): 45.2%
% Total, R10 EpCAM positive Cells (CD44FITC, EpCAMefluor710) (24 h incubation): 36.8%
% Gated, R11 (CD44FITC, EpCAMefluor710) (24 h incubation): 1.94%
% Total, R11 (CD44FITC, EpCAMefluor710) (24 h incubation): 1.58%
% Gated, R4 (CD44FITC, CD133 PE) (48 h incubation): 37.5%
% Total, R4 (CD44FITC, CD133 PE) (48 h incubation): 33.7%
% Gated, R5 (CD44FITC, CD133 PE) (48 h incubation): 7.38%
% Total, R5 (CD44FITC, CD133 PE) (48 h incubation): 6.64%
% Gated, R6 (CD44FITC, CD133 PE) (48 h incubation): 30.7%
% Total, R6 (CD44FITC, CD133 PE) (48 h incubation): 27.6%
% Gated, R7 Cancer Stem Cell (CSC) (CD44+CD133-) (48 h incubation): 25.1%
% Total, R7 Cancer Stem Cell (CSC) (CD44+CD133-) (48 h incubation): 22.6%
% Gated, R8 (CD44FITC, EpCAMefluor710) (48 h incubation): 26%
% Total, R8 (CD44FITC, EpCAMefluor710) (48 h incubation): 23.4%
% Gated, R9 EpCAM positive Cells (CD44FITC, EpCAMefluor710) (48 h incubation): 27.6%
% Total, R9 EpCAM positive Cells (CD44FITC, EpCAMefluor710) (48 h incubation): 24.8%
% Gated, R10 EpCAM positive Cells (CD44FITC, EpCAMefluor710) (48 h incubation): 26%
% Total, R10 EpCAM positive Cells (CD44FITC, EpCAMefluor710) (48 h incubation): 23.3%
% Gated, R11 (CD44FITC, EpCAMefluor710) (48 h incubation): 21.4%
% Total, R11 (CD44FITC, EpCAMefluor710) (48 h incubation): 19.3%
